From ChEMBL document CHEMBL1201862, “PubChem BioAssay data set” (2004)
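Cells were grown in 96-well plates and exposed to each compound for 48 hours at five concentrations; endpoints were interpolated linearly between bracketing concentrations, or set to the highest concentration if not reached. The concentration for 50% growth inhibition is given as GI50.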 The source made the active and inactive calls. Rule as the data show it: active = GI50 up to about 1.1 µM and inactive = higher.

What was measured:
Assay in all cases: NCI anticancer screen, dose series, 48 h
A549 = test system: A549
ACHN = test system: ACHN
HCC 2998 = test system: HCC 2998
HCT-116 = test system: HCT-116
HCT-15 = test system: HCT-15
HOP-92 = test system: HOP-92
K562 = test system: K562
KM-20L2 = test system: KM-20L2
M14 = test system: M14
Malme-3M = test system: Malme-3M
NCI-H522 = test system: NCI-H522
OVCAR-5 = test system: OVCAR-5
SK-MEL-28 = test system: SK-MEL-28
SK-MEL-2 = test system: SK-MEL-2
SNB-19 = test system: SNB-19
SNB-78 = test system: SNB-78
U-251 = test system: U-251
UACC-257 = test system: UACC-257
DMS-114 = test system: DMS-114

O=C(Cc1nc2ccc(C(=O)c3ccccc3)cc2nc1O)C(=O)Nc1ccc(C(F)(F)F)cc1[N+](=O)[O-]
GI50 (A549): > 100 µM (inactive)
GI50 (ACHN): > 100 µM (inactive)
GI50 (HCC 2998): > 100 µM (inactive)
GI50 (HCT-116): 96.2 µM (inactive)
GI50 (HCT-15): > 100 µM
GI50 (HOP-92): 35.3 µM (inactive)
GI50 (K562): 27.6 µM (inactive)
GI50 (KM-20L2): 56.4 µM (inactive)
GI50 (M14): > 100 µM (inactive)
GI50 (Malme-3M): > 100 µM (inactive)
GI50 (NCI-H522): 31.3 µM (inactive)
GI50 (OVCAR-5): > 100 µM (inactive)
GI50 (SK-MEL-28): 82.6 µM (inactive)
GI50 (SK-MEL-2): > 100 µM (inactive)
GI50 (SNB-19): 94.8 µM (inactive)
GI50 (SNB-78): 81.1 µM (inactive)
GI50 (U-251): > 100 µM (inactive)
GI50 (UACC-257): > 100 µM (inactive)

COc1ccc(C(=O)Cc2ccc(Br)cc2)cc1OC
GI50 (A549): > 100 µM (inactive)
GI50 (ACHN): > 100 µM (inactive)
GI50 (DMS-114): > 100 µM (inactive)
GI50 (HCC 2998): > 100 µM (inactive)
GI50 (HCT-116): > 100 µM (inactive)
GI50 (HCT-15): > 100 µM
GI50 (K562): > 100 µM (inactive)
GI50 (KM-20L2): > 100 µM (inactive)
GI50 (M14): > 100 µM (inactive)
GI50 (Malme-3M): > 100 µM (inactive)
GI50 (NCI-H522): 79.3 µM (inactive)
GI50 (OVCAR-5): > 100 µM (inactive)
GI50 (SK-MEL-2): > 100 µM (inactive)
GI50 (SNB-19): > 100 µM (inactive)
GI50 (SNB-78): > 100 µM (inactive)
GI50 (U-251): > 100 µM (inactive)
GI50 (UACC-257): > 100 µM (inactive)

COc1ccc(-c2nc(Sc3c([N+](=O)[O-])ncn3C)n[nH]2)cc1
GI50 (A549): 12.4 µM (inactive)
GI50 (ACHN): 3.61 µM (inactive)
GI50 (DMS-114): 2.41 µM (inactive)
GI50 (HCC 2998): 8.87 µM (inactive)
GI50 (HCT-116): 2.81 µM (inactive)
GI50 (HOP-92): 2.55 µM (inactive)
GI50 (K562): 2.99 µM (inactive)
GI50 (M14): 2.17 µM (inactive)
GI50 (Malme-3M): 2.6 µM (inactive)
GI50 (NCI-H522): 2.27 µM (inactive)
GI50 (OVCAR-5): 21 µM (inactive)
GI50 (SK-MEL-28): 4.21 µM (inactive)
GI50 (SK-MEL-2): 2.25 µM (inactive)
GI50 (SNB-19): 13 µM (inactive)
GI50 (SNB-78): 4.22 µM (inactive)
GI50 (U-251): 2.25 µM (inactive)
GI50 (UACC-257): 3.48 µM (inactive)

CN(c1ccccc1)c1nc(=[N+]2CCCC2)ss1.[O-][Cl+3]([O-])([O-])[O-]
GI50 (A549): > 100 µM (inactive)
GI50 (ACHN): > 100 µM (inactive)
GI50 (DMS-114): 7.66 µM (inactive)
GI50 (HCC 2998): > 100 µM (inactive)
GI50 (HCT-116): > 100 µM (inactive)
GI50 (HCT-15): 87.7 µM
GI50 (K562): 74.5 µM (inactive)
GI50 (KM-20L2): > 100 µM (inactive)
GI50 (M14): > 100 µM (inactive)
GI50 (Malme-3M): > 100 µM (inactive)
GI50 (NCI-H522): 1.7 µM (inactive)
GI50 (SK-MEL-28): > 100 µM (inactive)
GI50 (SK-MEL-2): > 100 µM (inactive)
GI50 (SNB-19): > 100 µM (inactive)
GI50 (SNB-78): > 100 µM (inactive)
GI50 (U-251): > 100 µM (inactive)
GI50 (UACC-257): > 100 µM (inactive)

O=C(Cn1ccnc1[N+](=O)[O-])c1ccc(F)cc1
GI50 (A549): > 100 µM (inactive)
GI50 (ACHN): > 100 µM (inactive)
GI50 (DMS-114): > 100 µM (inactive)
GI50 (HCT-15): > 100 µM
GI50 (HOP-92): > 100 µM (inactive)
GI50 (K562): > 100 µM (inactive)
GI50 (KM-20L2): > 100 µM (inactive)
GI50 (M14): > 100 µM (inactive)
GI50 (Malme-3M): > 100 µM (inactive)
GI50 (NCI-H522): > 100 µM (inactive)
GI50 (OVCAR-5): > 100 µM (inactive)
GI50 (SK-MEL-28): > 100 µM (inactive)
GI50 (SK-MEL-2): > 100 µM (inactive)
GI50 (SNB-19): > 100 µM (inactive)
GI50 (U-251): > 100 µM (inactive)
GI50 (UACC-257): > 100 µM (inactive)

CC(=O)c1c2c(cc3c1CC1(C3)Cc3cc4c(c(C(=O)O)c3C1)CCC4)CCC2 (stereo unspecified)
GI50 (A549): 30.8 µM (inactive)
GI50 (ACHN): 35.9 µM (inactive)
GI50 (DMS-114): 36.3 µM (inactive)
GI50 (HCC 2998): 37.8 µM (inactive)
GI50 (HCT-116): 24.9 µM (inactive)
GI50 (HOP-92): 33.2 µM (inactive)
GI50 (K562): 32.6 µM (inactive)
GI50 (M14): 41.2 µM (inactive)
GI50 (Malme-3M): 29.4 µM (inactive)
GI50 (NCI-H522): 15.9 µM (inactive)
GI50 (OVCAR-5): > 100 µM (inactive)
GI50 (SK-MEL-28): 44.5 µM (inactive)
GI50 (SNB-19): 45.3 µM (inactive)
GI50 (SNB-78): 55.6 µM (inactive)
GI50 (U-251): 26.2 µM (inactive)
GI50 (UACC-257): 45 µM (inactive)

COC(=O)C1(c2ccc(OC)cc2)NC(c2ccccc2)C2C(=O)N(c3ccc(OC)cc3)C(=O)C21 (stereo unspecified)
GI50 (A549): > 100 µM (inactive)
GI50 (ACHN): > 100 µM (inactive)
GI50 (DMS-114): > 100 µM (inactive)
GI50 (HCC 2998): > 100 µM (inactive)
GI50 (HCT-15): > 100 µM
GI50 (K562): > 100 µM (inactive)
GI50 (KM-20L2): > 100 µM (inactive)
GI50 (M14): > 100 µM (inactive)
GI50 (Malme-3M): > 100 µM (inactive)
GI50 (NCI-H522): > 100 µM (inactive)
GI50 (OVCAR-5): > 100 µM (inactive)
GI50 (SK-MEL-28): > 100 µM (inactive)
GI50 (SK-MEL-2): > 100 µM (inactive)
GI50 (SNB-19): > 100 µM (inactive)
GI50 (SNB-78): > 100 µM (inactive)
GI50 (U-251): > 100 µM (inactive)
GI50 (UACC-257): > 100 µM (inactive)

CN(C)[C@@H]1C(O)=C(C(=O)NCN2CCN(C(=N)NC(=N)N)CC2)C(=O)[C@@]2(O)C(O)=C3C(=O)c4c(O)cccc4[C@@](C)(O)[C@H]3C[C@@H]12
GI50 (ACHN): 0.306 µM (active)
GI50 (HCC 2998): 0.337 µM (active)
GI50 (HCT-116): 0.221 µM (active)
GI50 (HCT-15): 0.0721 µM
GI50 (HOP-92): 0.279 µM (active)
GI50 (K562): 0.0401 µM (active)
GI50 (KM-20L2): 0.299 µM (active)
GI50 (M14): 0.279 µM (active)
GI50 (Malme-3M): 0.269 µM (active)
GI50 (NCI-H522): 0.0329 µM (active)
GI50 (OVCAR-5): 0.282 µM (active)
GI50 (SK-MEL-28): 0.238 µM (active)
GI50 (SK-MEL-2): 0.113 µM (active)
GI50 (SNB-19): 0.314 µM (active)
GI50 (SNB-78): 0.0698 µM (active)
GI50 (U-251): 0.269 µM (active)
GI50 (UACC-257): 0.324 µM (active)

CCOC(=O)[C@H]1Nc2ccc(C)cc2C2c3ccccc3CC21 (stereo partly specified)
GI50 (A549): > 100 µM (inactive)
GI50 (ACHN): > 100 µM (inactive)
GI50 (DMS-114): > 100 µM (inactive)
GI50 (HCC 2998): > 100 µM (inactive)
GI50 (HCT-116): > 100 µM (inactive)
GI50 (HCT-15): > 100 µM
GI50 (K562): > 100 µM (inactive)
GI50 (KM-20L2): > 100 µM (inactive)
GI50 (M14): > 100 µM (inactive)
GI50 (Malme-3M): > 100 µM (inactive)
GI50 (NCI-H522): > 100 µM (inactive)
GI50 (OVCAR-5): > 100 µM (inactive)
GI50 (SK-MEL-28): > 100 µM (inactive)
GI50 (SK-MEL-2): > 100 µM (inactive)
GI50 (SNB-19): > 100 µM (inactive)
GI50 (SNB-78): > 100 µM (inactive)
GI50 (U-251): > 100 µM (inactive)
GI50 (UACC-257): 30.6 µM (inactive)

COc1cccc(OC)c1C(=O)OCc1ccccc1
GI50 (A549): > 100 µM (inactive)
GI50 (ACHN): > 100 µM (inactive)
GI50 (DMS-114): > 100 µM (inactive)
GI50 (HCT-116): > 100 µM (inactive)
GI50 (HCT-15): > 100 µM
GI50 (HOP-92): > 100 µM (inactive)
GI50 (K562): > 100 µM (inactive)
GI50 (KM-20L2): > 100 µM (inactive)
GI50 (M14): > 100 µM (inactive)
GI50 (NCI-H522): > 100 µM (inactive)
GI50 (SK-MEL-28): > 100 µM (inactive)
GI50 (SK-MEL-2): > 100 µM (inactive)
GI50 (U-251): > 100 µM (inactive)
GI50 (UACC-257): > 100 µM (inactive)

Cc1c2cc[n+](C)cc2c(C)c2c1[nH]c1ccccc12
GI50 (A549): 0.225 µM (active)
GI50 (DMS-114): 0.275 µM (active)
GI50 (HCC 2998): 3.49 µM (inactive)
GI50 (HCT-116): 4.22 µM (inactive)
GI50 (HOP-92): 1.33 µM (inactive)
GI50 (K562): 2.79 µM (inactive)
GI50 (Malme-3M): 0.855 µM (active)
GI50 (NCI-H522): 0.869 µM (active)
GI50 (OVCAR-5): 9.84 µM (inactive)
GI50 (SK-MEL-28): 1.34 µM (inactive)
GI50 (SK-MEL-2): 1.11 µM (active)
GI50 (SNB-19): 0.274 µM (active)
GI50 (U-251): 0.379 µM (active)
GI50 (UACC-257): 5.97 µM (inactive)

O=C1N[C@@H]2C(=C[C@H](O)[C@@H](O)[C@H]2O)c2cc3c(c(O)c21)OCO3 [NARCICLASINE]
GI50 (A549): 0.045 µM (active)
GI50 (HCC 2998): 0.045 µM (active)
GI50 (HCT-116): 0.045 µM (active)
GI50 (HCT-15): 0.045 µM
GI50 (HOP-92): 0.045 µM (active)
GI50 (K562): 0.045 µM (active)
GI50 (KM-20L2): 0.045 µM (active)
GI50 (Malme-3M): 0.045 µM (active)
GI50 (OVCAR-5): 0.0632 µM (active)
GI50 (SK-MEL-28): 0.045 µM (active)
GI50 (SK-MEL-2): 0.045 µM (active)
GI50 (SNB-19): 0.045 µM (active)
GI50 (SNB-78): 0.045 µM (active)
GI50 (U-251): 0.045 µM (active)
GI50 (UACC-257): 0.045 µM (active)
